Data: paper PMC12693701, “Glucosinolate-Derived Metabolites from Barbarea vulgaris (Brassicaceae): Evaluation of Antimicrobial, Antioxidant, and Anti-Inflammatory Potentials” (Molecules, 2025)

How the values were obtained:
COX-2 = target: T1, COX-2 (Homo sapiens, UniProt P35354); assay: COX-2 Inhibitor Screening Kit (Fluorometric); type: biochemical; conditions: for inhibition at 10 µM / inhibition at 100 µM: mean ± SE, read-out: Percentage of COX-2 Inhibition
T1 construct: purchased Abcam limited, Cambridge, UK
T1 sequence (P35354 18-604): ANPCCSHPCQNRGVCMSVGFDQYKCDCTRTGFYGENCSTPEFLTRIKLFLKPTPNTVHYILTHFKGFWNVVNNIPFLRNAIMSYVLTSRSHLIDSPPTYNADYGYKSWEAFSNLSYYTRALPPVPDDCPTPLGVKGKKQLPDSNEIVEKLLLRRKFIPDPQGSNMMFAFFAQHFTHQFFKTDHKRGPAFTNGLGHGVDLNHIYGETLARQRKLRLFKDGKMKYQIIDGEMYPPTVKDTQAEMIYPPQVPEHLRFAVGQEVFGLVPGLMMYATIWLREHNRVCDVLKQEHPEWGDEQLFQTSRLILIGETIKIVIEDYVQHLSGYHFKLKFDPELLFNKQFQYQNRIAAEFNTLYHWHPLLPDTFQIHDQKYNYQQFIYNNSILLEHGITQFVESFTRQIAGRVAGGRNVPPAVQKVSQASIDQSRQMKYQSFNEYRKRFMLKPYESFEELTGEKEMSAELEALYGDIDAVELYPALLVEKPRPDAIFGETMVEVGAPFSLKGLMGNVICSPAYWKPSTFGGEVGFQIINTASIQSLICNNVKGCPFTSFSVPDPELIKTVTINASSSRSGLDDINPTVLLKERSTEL
Description: The COX-2 Inhibitor Screening Kit (Fluorometric) (Abcam limited, Cambridge, UK) is a sensitive assay for screening COX-2 inhibitors by fluorometrically detecting Prostaglandin G2, an intermediate formed by COX enzymatic activity The COX-2 inhibitory activity was evaluated following the manufacturer’s instructions. Tested compounds were prepared as 5 mM DMSO stock solutions, diluted 5-fold with assay buffer, and 10 µL was used per well. Controls included celecoxib (inhibitor control), DMSO (solvent control) and enzyme control. A reaction mix containing COX-2 enzyme, probe, cofactor, and assay buffer was added (80 µL), followed by 10 µL arachidonic acid/NaOH to start the reaction. Fluorescence (Ex/Em = 535/587 nm) was monitored kinetically at 25 °C. All measurements were performed in triplicate.

tested fungal strains = assay: Microdilution MIC, summary over tested fungal strains; type: cell-based; conditions: tested concentrations 5 to 0.039 mg/mL
Description: The antimicrobial activity was evaluated against 15 microorganisms. This included 11 bacterial strains: four standard strains (Staphylococcus aureus ATCC 25923, Bacillus subtilis ATCC 6633, Bacillus pumilus NCTC 8241, and Escherichia coli ATCC 25922) and six clinical or environmental isolates (Staphylococcus aureus, Escherichia coli, Bacillus cereus, Proteus mirabilis, Salmonella enterica, and Klebsiella pneumoniae). One probiotic strain, Bifidobacterium animalis subsp. lactis was tested. In addition, four fungal strains, Candida albicans ATCC 10231, Trichoderma viride ATCC 13233, Aspergillus flavus ATCC 9170, and Fusarium solani ATCC 11712 were tested. The bacterial strains were kept in glycerol stock at −80 °C and the fungal strains in paraffin oil stock at 4 °C. […]
Antimicrobial activity was evaluated by determining the minimum inhibitory concentration (MIC) and minimum microbicidal concentration (MMC) using the microdilution plate method with resazurin as an indicator [28]. […]
Each test also included growth control and sterility control. […] For molds, MIC values of the tested compound were determined as the lowest concentration that inhibited visible mycelia growth. MMC was determined by inoculation of the nutrient agar medium by plating […] of samples from wells, where no indicator color change was recorded. […]

S=C1NC[C@H](c2ccccc2)O1 [Compound 5, (S)-5-phenyl-1,3-oxazolidine-2-thione]
IC50 (COX-2): > 100 µM | inhibition at 10 µM (COX-2): 8.11 ± 1% | inhibition at 100 µM (COX-2): 21.2 ± 1.3%

O=C1NCC(c2ccccc2)S1 (stereo not shown) [Compound 6, 5-phenyl-1,3-thiazolidin-2-one]
antifungal activity (in words) (tested fungal strains): all fungal strains were resistant

S=C1NCC(c2ccccc2)O1 (racemic) [Compound 4, rac-5-Phenyl-1,3-oxazolidine-2-thione]
IC50 (COX-2): > 100 µM | inhibition at 10 µM (COX-2): 4.5 ± 1.6% | inhibition at 100 µM (COX-2): 14.2 ± 1%
